35 compounds from ChEMBL document CHEMBL5579895, “Discovery of TYRA-300: First Oral Selective FGFR3 Inhibitor for the Treatment of Urothelial Cancers and Achondroplasia” (J Med Chem, 2024) can be followed below.

The structures appear in SMILES notation.

Data set [1] is described as follows: Inhibition of recombinant BCR/FGFR1 (unknown origin) transduced in mouse BaF3 cells incubated for 48 hrs by Cell Titer Glo assay. The format is cell-based. The conditions noted are these: BaF3, 48 h.
Data set [2] is described as follows: Inhibition of recombinant BCR/FGFR2 (unknown origin) transduced in mouse BaF3 cells incubated for 48 hrs by Cell Titer Glo assay. The format is cell-based. The conditions noted are these: BaF3, 48 h.
The nature of data set [3]: Inhibition of recombinant FGFR3/BAIAP2L1 (unknown origin) transduced in mouse BaF3 cells incubated for 48 hrs by Cell Titer Glo assay. Format: cell-based. The conditions noted are these: BaF3, 48 h.
Data set [4] in a line: Inhibition of recombinant BCR/FGFR4 (unknown origin) transduced in mouse BaF3 cells incubated for 48 hrs by Cell Titer Glo assay. The format is cell-based. The conditions noted are these: BaF3, 48 h.
Data set [5] can be described thus: Stability in human liver microsomes assessed as half life at 1 uM incubated upto 180 mins by LC-MS/MS analysis. The format is ADME, Microsome.
A short description of data set [6]: Stability in human hepatocytes assessed as half life at 1 uM incubated upto 180 mins by LC-MS/MS analysis. The format is ADME, cell-based, Hepatocyte.

In the case of `C[C@@H](Oc1ccc2[nH]nc(-c3ccc(N4CCN(C)CC4)nc3)c2c1)c1c(Cl)cncc1Cl`, the IC50 in data set [1] was 46 nM; in data set [2], 28 nM; in data set [3], 3.6 nM; in data set [4], 27 nM. Besides, the half-life at 1 µM in data set [5] is 5 min.
Turning to `C[C@H](Oc1ccc2[nH]nc(-c3ccc(N4CC5(C4)CN(S(C)(=O)=O)C5)nc3)c2c1)c1c(Cl)cnnc1Cl`, the IC50 in data set [1] stood at 2000 nM; in data set [3] it was 179 nM.
As for `C[C@@H](Oc1ccc2[nH]nc(-c3ccc(N4CC5(CCCS(=O)(=O)C5)C4)nc3)c2c1)c1c(Cl)cncc1Cl`, the IC50 is 61 nM in data set [1], 33 nM in data set [2], 2.5 nM in data set [3] and 17 nM in data set [4]. Moreover, the half-life at 1 µM in data set [6] turned out to be 85 min.
For `COC(=O)N1CCN(c2ccc(-c3n[nH]c4ccc(O[C@H](C)c5c(Cl)cncc5Cl)cc34)cn2)CC1`, the IC50 in data set [1] is 556 nM; in data set [2] it was 387 nM; in data set [3], 38 nM; in data set [4], 591 nM. Further, the half-life at 1 µM in data set [5] is 8.5 min.
As to `C[C@@H](Oc1ccc2[nH]nc(-c3ccc(N4CCOCC4)nc3)c2c1)c1c(Cl)cncc1Cl`, the half-maximal inhibitory concentration (IC50) in data set [1] worked out at 514 nM; in data set [2] it was 313 nM; in data set [3], 36 nM; in data set [4], 1230 nM. For the same compound, in data set [5], the half-life at 1 µM came to 5.5 min.
As to `C[C@@H](Oc1ccc2[nH]nc(-c3ccc(C4CCN(S(C)(=O)=O)CC4)nc3)c2c1)c1c(Cl)cncc1Cl`, the IC50 in data set [1] was determined as 99 nM; in data set [3], 5.3 nM. Besides, the half-life at 1 µM in data set [5] came out at 15 min.
For `Cc1cncc(C)c1[C@@H](C)Oc1ccc2[nH]nc(-c3ccc(N4CC5(C4)CN(S(C)(=O)=O)C5)nc3)c2c1`, the IC50 in data set [1] stood at 135 nM; in data set [2], 86 nM; in data set [3] it was 8.1 nM; in data set [4], 52 nM. Moreover, in data set [6], the half-life at 1 µM was found to be 32 min.
The matching figures for `C[C@@H](Oc1cc2c(-c3ccc(N4CC5(C4)CN(S(C)(=O)=O)C5)nc3)n[nH]c2cc1F)c1c(Cl)cncc1Cl`: 84 nM, 56 nM, 6.3 nM, 40 nM and over 100 min.
For the compound `C[C@@H](Oc1ccc2[nH]nc(-c3ccc(N4CCN(C(=O)N(C)C)CC4)nc3)c2c1)c1c(Cl)cncc1Cl`, the IC50 in data set [1] came to 290 nM; in data set [2], 249 nM; in data set [3], 13 nM; in data set [4] it was 307 nM. In addition, the half-life at 1 µM in data set [5] amounted to 1.1 min.
Consider `CCOC(=O)N1CC2(C1)CN(c1ccc(-c3n[nH]c4ccc(O[C@H](C)c5c(Cl)cncc5Cl)cc34)cn1)C2`, for which the IC50 in data set [1] turned out to be 434 nM; in data set [2] it was 248 nM; in data set [3], 22 nM; in data set [4] it was 418 nM. The half-life at 1 µM in data set [6] worked out at 27 min.
For the compound `C[C@@H](Oc1ccc2[nH]nc(-c3ccc(N4CC5(CN(C(=O)N(C)C)C5)C4)nc3)c2c1)c1c(Cl)cncc1Cl`, the IC50 was 234 nM in data set [1], 202 nM in data set [2], 17 nM in data set [3] and 469 nM in data set [4]. For the same compound, the half-life at 1 µM in data set [6] turned out to be 14 min.
On the same counts, the results for `C[C@@H](Oc1ccc2[nH]nc(-c3ccc(N4CC5(CCCN(S(C)(=O)=O)C5)C4)nc3)c2c1)c1c(Cl)cncc1Cl` are 94 nM, 62 nM, 6 nM, 39 nM and 40 min.
`C[C@@H](Oc1ccc2[nH]nc(-c3ccc(N4CCN(C(=O)N5CCN(C)CC5)CC4)nc3)c2c1)c1c(Cl)cncc1Cl`: the IC50 in data set [1] was 113 nM; in data set [2] it was 114 nM; in data set [3], 6.5 nM; in data set [4], 148 nM. In data set [5], the half-life at 1 µM was 3.5 min.
For `C[C@@H](Oc1ccc2[nH]nc(-c3ccc(N4CCN(S(C)(=O)=O)C5(CC5)C4)nc3)c2c1)c1c(Cl)cncc1Cl`, the figures for the IC50 in data set [1] and in data set [3] were 172 nM and 12 nM, respectively. Further, the half-life at 1 µM in data set [5] turned out to be 4.8 min.
For `C[C@H](Oc1ccc2[nH]nc(-c3ccc(N4CC5(C4)CN(S(C)(=O)=O)C5)nc3)c2c1)c1c(Cl)cncc1Cl`, the IC50 in data set [3] was 133 nM.
`Cc1ncc(Cl)c([C@@H](C)Oc2ccc3[nH]nc(-c4ccc(N5CC6(C5)CN(S(C)(=O)=O)C6)nc4)c3c2)c1Cl`: the IC50 was determined as 176 nM in data set [1], 47 nM in data set [2] and 10 nM in data set [3]. For the same compound, the half-life at 1 µM in data set [6] is 64 min.
`C[C@@H](Oc1ccc2[nH]nc(-c3ccc(N4CCN(S(C)(=O)=O)CC4)nc3)c2c1)c1c(Cl)cncc1Cl`: the IC50 in data set [1] was 150 nM; in data set [2], 104 nM; in data set [3] it was 5.8 nM; in data set [4], 156 nM. The half-life at 1 µM in data set [5] amounted to 9.6 min.
With `CCC(=O)N1CCN(c2ccc(-c3n[nH]c4ccc(O[C@H](C)c5c(Cl)cncc5Cl)cc34)cn2)CC1`, the IC50 is 112 nM in data set [1] and 6 nM in data set [3]. The half-life at 1 µM in data set [5] worked out at 4.7 min.
On to `C[C@@H](Oc1ccc2[nH]nc(-c3ccc(N4CCN(S(C)(=O)=O)CC4=O)nc3)c2c1)c1c(Cl)cncc1Cl`, for which the IC50 in data set [1] came to 653 nM; in data set [2], 407 nM; in data set [3], 48 nM; in data set [4] it was 412 nM. In data set [5], the half-life at 1 µM is 3.3 min.
`C[C@@H](Oc1ccc2[nH]nc(-c3ccc(N4CC5(C4)CS(=O)(=O)C5)nc3)c2c1)c1c(Cl)cncc1Cl`: the IC50 in data set [1] came to 228 nM; in data set [2], 191 nM; in data set [3], 26 nM; in data set [4] it was 300 nM.
Turning to `C[C@@H](Oc1ccc2[nH]nc(-c3ccc(N4CC5(CCN5S(C)(=O)=O)C4)nc3)c2c1)c1c(Cl)cncc1Cl`, the IC50 in data set [1] came to 290 nM; in data set [2], 131 nM; in data set [3], 18 nM; in data set [4] it was 229 nM. Besides, the half-life at 1 µM in data set [6] worked out at 49 min.
Take `C[C@@H](Oc1ccc2[nH]nc(-c3ccc(N4CC5(C4)CN(S(C)(=O)=O)C5)nc3)c2c1)c1c(Cl)cnc(F)c1Cl`: the IC50 in data set [1] worked out at 258 nM; in data set [3] it was 16 nM.
For the compound `CCS(=O)(=O)N1CC2(CN(c3ccc(-c4n[nH]c5ccc(O[C@H](C)c6c(Cl)cncc6Cl)cc45)cn3)C2)C1`, the IC50 in data set [1] is 390 nM; in data set [2] it was 290 nM; in data set [3] it was 40 nM; in data set [4], 529 nM.
Regarding `COc1cc2[nH]nc(-c3ccc(N4CC5(C4)CN(S(C)(=O)=O)C5)nc3)c2cc1O[C@H](C)c1c(Cl)cncc1Cl`, the IC50 in data set [1] was 14 nM; in data set [2], 6.9 nM; in data set [3], 0.8 nM; in data set [4], 4.5 nM.
Consider `CC(C)N1CC2(CN(c3ccc(-c4n[nH]c5ccc(O[C@H](C)c6c(Cl)cncc6Cl)cc45)cn3)C2)C1`, for which the IC50 is 59 nM in data set [1], 35 nM in data set [2], 4.1 nM in data set [3] and 22 nM in data set [4]. Also, the half-life at 1 µM in data set [6] worked out at 51 min.
On the same counts, the results for `C[C@@H](Oc1ccc2[nH]nc(-c3ccc(N4CCC5(CC4)CCS(=O)(=O)C5)nc3)c2c1)c1c(Cl)cncc1Cl` are 423 nM, 193 nM, 14 nM, 577 nM and 88 min.
Take `C[C@@H](Oc1ccc2[nH]nc(-c3ccc(Cl)nc3)c2c1)c1c(Cl)cncc1Cl`: the IC50 was 1040 nM in data set [1], 451 nM in data set [2], 110 nM in data set [3] and 2200 nM in data set [4].
`C[C@@H](Oc1ccc2[nH]nc(-c3cnc(N4CC5(C4)CN(S(C)(=O)=O)C5)cn3)c2c1)c1c(Cl)cncc1Cl`: the IC50 came out at 189 nM in data set [1], 97 nM in data set [2], 16 nM in data set [3] and 21 nM in data set [4]. Also, the half-life at 1 µM in data set [6] was over 100 min.
As for `C[C@@H](Oc1ccc2[nH]nc(-c3ccc(N4CCC5(CCCO5)CC4)nc3)c2c1)c1c(Cl)cncc1Cl`, the IC50 amounted to 872 nM in data set [1], 503 nM in data set [2], 97 nM in data set [3] and 2030 nM in data set [4].
Consider `C[C@@H](Oc1ccc2[nH]nc(-c3ccc(N4CCC5(CCOC5)CC4)nc3)c2c1)c1c(Cl)cncc1Cl`, for which the IC50 in data set [1] is 711 nM; in data set [2], 360 nM; in data set [3], 48 nM; in data set [4] it was 835 nM.
Turning to `C[C@@H](Oc1ccc2[nH]nc(-c3ccc(N4CC5(C4)CN(S(C)(=O)=O)C5)nc3)c2c1)c1c(Cl)cccc1Cl`, the IC50 worked out at 405 nM in data set [1] and 30 nM in data set [3].
In the case of `C[C@@H](Oc1ccc2[nH]nc(-c3ccc(N4CC5CC(C4)N5S(C)(=O)=O)nc3)c2c1)c1c(Cl)cncc1Cl`, the IC50 was 338 nM in data set [1] and 23 nM in data set [3]. Further, the half-life at 1 µM in data set [5] came to 15 min.
For the compound `C[C@@H](Oc1ccc2[nH]nc(/C=C/c3cnn(CCO)c3)c2c1)c1c(Cl)cncc1Cl` [LY-2874455], the IC50 in data set [1] stood at 0.5 nM; in data set [2], 0.2 nM; in data set [3], 0.2 nM; in data set [4], 2 nM.
Turning to `C[C@@H](Oc1cc2c(-c3ccc(N4CC5(C4)CN(S(C)(=O)=O)C5)nc3)n[nH]c2cc1Cl)c1c(Cl)cncc1Cl`, the IC50 in data set [1] was 60 nM; in data set [2] it was 35 nM; in data set [3], 6.2 nM; in data set [4], 37 nM.
For `C[C@@H](Oc1ccc2[nH]nc(-c3ccc(N4CCC5(CC4)CN(C)CC(=O)N5)nc3)c2c1)c1c(Cl)cncc1Cl`, the IC50 came out at 208 nM in data set [1], 154 nM in data set [2], 13 nM in data set [3] and 298 nM in data set [4]. The half-life at 1 µM in data set [6] stood at 36 min.
